Assay results published in ChEMBL document CHEMBL1201862, “PubChem BioAssay data set” (2004).
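Exposure lasted 48 hours, with cells grown in 96-well plates and compounds tested at five concentrations. Here, GI50 denotes the concentration required for 50% inhibition of growth.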 Active and inactive are the calls of the source. Cut-off read from the data, not from the text of the source: active = GI50 up to about 1.1 µM and inactive = higher.

Columns and labels:
Assay in all cases: NCI-60 cell line screen, 48 h
[1] = tested on: LOX IMVI
[2] = tested on: HCT-15
[3] = tested on: UACC-62
[4] = tested on: SF-268
[5] = tested on: M19-MEL
[6] = tested on: SN12C
[7] = tested on: Malme-3M
[8] = tested on: SNB-78
[9] = tested on: A498
[10] = tested on: LXFL 529
[11] = tested on: OVCAR-5
[12] = tested on: OVCAR-8
[13] = tested on: KM12
[14] = tested on: SK-OV-3
[15] = tested on: XF498
[16] = tested on: HCC 2998
[17] = tested on: SK-MEL-2
[18] = tested on: SK-MEL-5
[19] = tested on: MOLT-4
[20] = tested on: SNB-75
[21] = tested on: COLO 205
[22] = tested on: HT-29
[23] = tested on: CCRF-CEM
[24] = tested on: TK-10
[25] = tested on: DMS-114
[26] = tested on: RPMI-8226
[27] = tested on: 786-0
[28] = tested on: HOP-62
[29] = tested on: UACC-257
[30] = tested on: KM-20L2
[31] = tested on: NCI-H23
[32] = tested on: CAKI-1
[33] = tested on: M14
[34] = tested on: NCI-H226
[35] = tested on: DMS-273
[36] = tested on: HL-60
[37] = tested on: EKVX
[38] = tested on: NCI-H460
[39] = tested on: ACHN
[40] = tested on: SF-539
[41] = tested on: UO-31
[42] = tested on: A549
[43] = tested on: U-251
[44] = tested on: NCI-H522
[45] = tested on: SW-620
[46] = tested on: K562
[47] = tested on: IGROV-1
[48] = tested on: HCT-116
[49] = tested on: OVCAR-3
[50] = tested on: SF-295
[51] = tested on: SNB-19
[52] = tested on: DLD-1
[53] = tested on: SK-MEL-28
[54] = tested on: SR
[55] = tested on: HOP-92
[56] = tested on: HOP-18
[57] = tested on: OVCAR-4
[58] = tested on: RXF 393

CC(C)OC(=O)c1cccnc1/C=N/O
GI50 [1]: > 100 µM (inactive)
GI50 [2]: > 100 µM
GI50 [3]: > 100 µM (inactive)
GI50 [4]: > 100 µM (inactive)
GI50 [5]: > 100 µM (inactive)
GI50 [6]: > 100 µM (inactive)
GI50 [7]: > 100 µM (inactive)
GI50 [8]: > 100 µM (inactive)
GI50 [9]: > 100 µM (inactive)
GI50 [10]: > 100 µM (inactive)
GI50 [11]: > 100 µM (inactive)
GI50 [12]: > 100 µM (inactive)
GI50 [13]: > 100 µM (inactive)
GI50 [14]: > 100 µM (inactive)
GI50 [15]: > 100 µM (inactive)
GI50 [16]: > 100 µM (inactive)
GI50 [17]: > 100 µM (inactive)
GI50 [18]: > 100 µM (inactive)
GI50 [19]: > 100 µM (inactive)
GI50 [20]: > 100 µM (inactive)
GI50 [21]: > 100 µM (inactive)
GI50 [22]: > 100 µM (inactive)
GI50 [23]: > 100 µM (inactive)
GI50 [24]: > 100 µM (inactive)
GI50 [25]: > 100 µM (inactive)
GI50 [26]: > 100 µM (inactive)
GI50 [27]: > 100 µM (inactive)
GI50 [28]: > 100 µM (inactive)
GI50 [29]: > 100 µM (inactive)
GI50 [30]: > 100 µM (inactive)
GI50 [31]: > 100 µM (inactive)
GI50 [32]: > 100 µM (inactive)
GI50 [33]: > 100 µM (inactive)
GI50 [34]: > 100 µM (inactive)
GI50 [35]: > 100 µM (inactive)
GI50 [36]: > 100 µM (inactive)
GI50 [37]: > 100 µM (inactive)
GI50 [38]: 84.1 µM (inactive)
GI50 [39]: > 100 µM (inactive)
GI50 [40]: > 100 µM (inactive)
GI50 [41]: > 100 µM (inactive)
GI50 [42]: > 100 µM (inactive)
GI50 [43]: > 100 µM (inactive)
GI50 [44]: > 100 µM (inactive)
GI50 [45]: > 100 µM (inactive)
GI50 [46]: > 100 µM (inactive)
GI50 [47]: > 100 µM (inactive)
GI50 [48]: > 100 µM (inactive)
GI50 [49]: > 100 µM (inactive)
GI50 [50]: 88.5 µM (inactive)
GI50 [51]: > 100 µM (inactive)
GI50 [52]: > 100 µM (inactive)

COc1c(C(=O)O)oc2c(OC)cccc12
GI50 [1]: > 100 µM (inactive)
GI50 [2]: > 100 µM
GI50 [3]: > 100 µM (inactive)
GI50 [4]: > 100 µM (inactive)
GI50 [5]: > 100 µM (inactive)
GI50 [6]: > 100 µM (inactive)
GI50 [7]: > 100 µM (inactive)
GI50 [8]: > 100 µM (inactive)
GI50 [9]: > 100 µM (inactive)
GI50 [10]: > 100 µM (inactive)
GI50 [11]: > 100 µM (inactive)
GI50 [12]: > 100 µM (inactive)
GI50 [13]: > 100 µM (inactive)
GI50 [14]: > 100 µM (inactive)
GI50 [16]: > 100 µM (inactive)
GI50 [17]: > 100 µM (inactive)
GI50 [18]: > 100 µM (inactive)
GI50 [19]: > 100 µM (inactive)
GI50 [20]: 29.9 µM (inactive)
GI50 [21]: > 100 µM (inactive)
GI50 [22]: > 100 µM (inactive)
GI50 [53]: > 100 µM (inactive)
GI50 [23]: > 100 µM (inactive)
GI50 [24]: > 100 µM (inactive)
GI50 [25]: > 100 µM (inactive)
GI50 [26]: > 100 µM (inactive)
GI50 [27]: > 100 µM (inactive)
GI50 [28]: > 100 µM (inactive)
GI50 [29]: > 100 µM (inactive)
GI50 [31]: > 100 µM (inactive)
GI50 [33]: > 100 µM (inactive)
GI50 [34]: > 100 µM (inactive)
GI50 [54]: > 100 µM (inactive)
GI50 [55]: > 100 µM (inactive)
GI50 [35]: > 100 µM (inactive)
GI50 [36]: > 100 µM (inactive)
GI50 [37]: > 100 µM (inactive)
GI50 [38]: > 100 µM (inactive)
GI50 [39]: > 100 µM (inactive)
GI50 [40]: > 100 µM (inactive)
GI50 [41]: > 100 µM (inactive)
GI50 [42]: > 100 µM (inactive)
GI50 [43]: > 100 µM (inactive)
GI50 [44]: > 100 µM (inactive)
GI50 [45]: > 100 µM (inactive)
GI50 [46]: > 100 µM (inactive)
GI50 [47]: > 100 µM (inactive)
GI50 [48]: > 100 µM (inactive)
GI50 [49]: > 100 µM (inactive)
GI50 [56]: > 100 µM (inactive)
GI50 [50]: > 100 µM (inactive)
GI50 [51]: > 100 µM (inactive)
GI50 [57]: > 100 µM (inactive)

O=C(CC(=O)c1cccc2ccccc12)C(=O)Nc1nccs1
GI50 [1]: > 100 µM (inactive)
GI50 [2]: > 100 µM
GI50 [3]: > 100 µM (inactive)
GI50 [4]: > 100 µM (inactive)
GI50 [5]: > 100 µM (inactive)
GI50 [6]: > 100 µM (inactive)
GI50 [7]: > 100 µM (inactive)
GI50 [8]: > 100 µM (inactive)
GI50 [9]: > 100 µM (inactive)
GI50 [10]: > 100 µM (inactive)
GI50 [11]: > 100 µM (inactive)
GI50 [12]: > 100 µM (inactive)
GI50 [13]: > 100 µM (inactive)
GI50 [14]: > 100 µM (inactive)
GI50 [16]: > 100 µM (inactive)
GI50 [17]: > 100 µM (inactive)
GI50 [18]: > 100 µM (inactive)
GI50 [19]: > 100 µM (inactive)
GI50 [20]: 66.2 µM (inactive)
GI50 [21]: > 100 µM (inactive)
GI50 [22]: > 100 µM (inactive)
GI50 [53]: > 100 µM (inactive)
GI50 [23]: > 100 µM (inactive)
GI50 [24]: > 100 µM (inactive)
GI50 [26]: > 100 µM (inactive)
GI50 [27]: > 100 µM (inactive)
GI50 [28]: > 100 µM (inactive)
GI50 [29]: > 100 µM (inactive)
GI50 [30]: > 100 µM (inactive)
GI50 [31]: > 100 µM (inactive)
GI50 [32]: > 100 µM (inactive)
GI50 [33]: > 100 µM (inactive)
GI50 [34]: > 100 µM (inactive)
GI50 [54]: > 100 µM (inactive)
GI50 [55]: > 100 µM (inactive)
GI50 [35]: > 100 µM (inactive)
GI50 [36]: > 100 µM (inactive)
GI50 [37]: > 100 µM (inactive)
GI50 [38]: > 100 µM (inactive)
GI50 [39]: > 100 µM (inactive)
GI50 [40]: > 100 µM (inactive)
GI50 [41]: > 100 µM (inactive)
GI50 [42]: > 100 µM (inactive)
GI50 [43]: > 100 µM (inactive)
GI50 [44]: > 100 µM (inactive)
GI50 [45]: > 100 µM (inactive)
GI50 [46]: > 100 µM (inactive)
GI50 [47]: > 100 µM (inactive)
GI50 [48]: > 100 µM (inactive)
GI50 [49]: > 100 µM (inactive)
GI50 [56]: > 100 µM (inactive)
GI50 [50]: > 100 µM (inactive)
GI50 [58]: > 100 µM (inactive)
GI50 [57]: > 100 µM (inactive)
GI50 [52]: > 100 µM (inactive)
